{"source": "patent US20220107328A1", "about": "“METHODS OF TREATING LIVER DISEASES” (Camp4 Therapeutics Corporation, priority 2018, published 2022)", "key": {"PCSK9 mRNA": {"system": "PCSK9 mRNA", "experiment": "qRT-PCR of PCSK9 mRNA in primary hepatocytes", "format": "cell-based, human", "settings": "donor 4178, 3 μM, relative to GUSB"}, "PNPLA3 mRNA [1]": {"system": "PNPLA3 mRNA", "experiment": "qRT-PCR of PNPLA3 mRNA in human primary hepatic stellate cells", "format": "cell-based", "settings": "3 μM, relative to GAPDH"}, "PNPLA3 mRNA [2]": {"system": "PNPLA3 mRNA", "experiment": "qRT-PCR of PNPLA3 mRNA in compound-treated primary human hepatocytes", "settings": "for Primary Hepatocytes 4178 PNPLA3 (fold change in mRNA expression): donor 4178, 3 μM; for Primary Hepatocytes 4178 PNPLA3 (fold change in mRNA expression) / Primary Hepatocytes 4282 PNPLA3 (fold change in mRNA expression): relative to GUSB; for Primary Hepatocytes 4282 PNPLA3 (fold change in mRNA expression): donor 4282, 3 μM; for Relative PINPLA3 mRNA: hepatocytes"}, "COL1A1 mRNA": {"system": "COL1A1 mRNA", "experiment": "qRT-PCR of COL1A1 mRNA in human primary hepatic stellate cells", "format": "cell-based", "settings": "3 μM, relative to GAPDH", "experimental": "Cells were plated at a density of 17000 cells/well in a 96-well plate and allowed to adhere overnight. The following day cell culture media was replenished with the indicated concentration(s) of compound for 18 hours. […] Medium was removed after 18 hours and cells were processed for further analysis, e.g. qRT-PCR.\nAnalysis of the fold changes in expression as measured by qRT-PCR were performed using the technique below. The control was DMSO, and the treatment was the selected compound (CPD). The internal control was GAPDH or B-Actin (or otherwise indicated), and the gene of interest is the target. First, the averages of the 4 conditions were calculated for normalization: DMSO:GAPDH, DMSO:Target, CPD: GAPDH, and CPD:Target. Next, the ΔCT of both control and treatment were calculated to normalize to internal control (GAPDH) using (DMSO:Target)−(DMSO:GAPDH)=ΔCT control and (CPD:Target)−(CPD: GAPDH)=ΔCT experimental. Then, the ΔΔCT was calculated by ΔCT experimental−ΔCT control.\nCandidate compounds were tested in stellate cells for their ability to modulate PNPLA3 and COL1A1. Stellate cells were treated with serial dilutions of the compounds, ranging from 0.1 μM to 100 μM. Changes in PNPLA3 (or COL1A1) mRNA levels in stellate cells were analyzed with qRT-PCR."}}, "data": [{"molecule": "C[C@H](Nc1ncnc2[nH]cnc12)c1cc2ccc(F)cc2nc1-c1ccccn1", "note": "[AMG319]", "values": [{"measurement": "Primary Hepatocytes 4178 PCSK9 (fold change in mRNA expression)", "setting": "PCSK9 mRNA", "value": 0.74}, {"measurement": "Primary Stellate cells PNPLA3 (fold change in mRNA expression)", "setting": "PNPLA3 mRNA [1]", "value": 0.99}, {"measurement": "Primary Hepatocytes 4178 PNPLA3 (fold change in mRNA expression)", "setting": "PNPLA3 mRNA [2]", "value": 0.73}, {"measurement": "Primary Hepatocytes 4282 PNPLA3 (fold change in mRNA expression)", "setting": "PNPLA3 mRNA [2]", "value": 0.85}, {"measurement": "Primary Stellate cells COL1A1 (fold change in mRNA expression)", "setting": "COL1A1 mRNA", "value": 0.99}]}, {"molecule": "CNC(=O)c1cccc(-c2ccc3c(N4CCOC[C@@H]4C)nc(N4CCOC[C@@H]4C)nc3n2)c1", "note": "[AZD2014]", "values": [{"measurement": "Primary Hepatocytes 4178 PCSK9 (fold change in mRNA expression)", "setting": "PCSK9 mRNA", "value": 0.36}, {"measurement": "Primary Stellate cells PNPLA3 (fold change in mRNA expression)", "setting": "PNPLA3 mRNA [1]", "value": 0.56}, {"measurement": "Primary Hepatocytes 4178 PNPLA3 (fold change in mRNA expression)", "setting": "PNPLA3 mRNA [2]", "value": 0.43}, {"measurement": "Primary Hepatocytes 4282 PNPLA3 (fold change in mRNA expression)", "setting": "PNPLA3 mRNA [2]", "value": 0.80}, {"measurement": "Primary Stellate cells COL1A1 (fold change in mRNA expression)", "setting": "COL1A1 mRNA", "value": 0.55}]}, {"molecule": "C[C@@H](Nc1cc(F)cc(F)c1)c1cc(C(=O)N(C)C)cc2c(=O)cc(N3CCOCC3)oc12", "note": "[AZD8186]", "values": [{"measurement": "Primary Hepatocytes 4178 PCSK9 (fold change in mRNA expression)", "setting": "PCSK9 mRNA", "value": 0.70}, {"measurement": "Primary Stellate cells PNPLA3 (fold change in mRNA expression)", "setting": "PNPLA3 mRNA [1]", "value": 0.86}, {"measurement": "Primary Hepatocytes 4178 PNPLA3 (fold change in mRNA expression)", "setting": "PNPLA3 mRNA [2]", "value": 0.80}, {"measurement": "Primary Hepatocytes 4282 PNPLA3 (fold change in mRNA expression)", "setting": "PNPLA3 mRNA [2]", "value": 0.80}, {"measurement": "Primary Stellate cells COL1A1 (fold change in mRNA expression)", "setting": "COL1A1 mRNA", "value": 1.22}]}, {"molecule": "C[C@H](Nc1ncnc2[nH]cnc12)c1nc2ccc(F)cc2c(=O)n1-c1ccccc1", "note": "[Acalisib]", "values": [{"measurement": "Primary Hepatocytes 4178 PCSK9 (fold change in mRNA expression)", "setting": "PCSK9 mRNA", "value": 0.99}, {"measurement": "Primary Stellate cells PNPLA3 (fold change in mRNA expression)", "setting": "PNPLA3 mRNA [1]", "value": 0.91}, {"measurement": "Primary Hepatocytes 4178 PNPLA3 (fold change in mRNA expression)", "setting": "PNPLA3 mRNA [2]", "value": 1.00}, {"measurement": "Primary Hepatocytes 4282 PNPLA3 (fold change in mRNA expression)", "setting": "PNPLA3 mRNA [2]", "value": 1.00}, {"measurement": "Primary Stellate cells COL1A1 (fold change in mRNA expression)", "setting": "COL1A1 mRNA", "value": 0.96}]}, {"molecule": "Cc1c(CN2CCN(C(=O)[C@H](C)O)CC2)sc2c(N3CCOCC3)nc(-c3cnc(N)nc3)nc12", "note": "[Apitolisib (GDC-0980, RG7422)]", "values": [{"measurement": "Primary Hepatocytes 4178 PCSK9 (fold change in mRNA expression)", "setting": "PCSK9 mRNA", "value": 0.31}, {"measurement": "Primary Stellate cells PNPLA3 (fold change in mRNA expression)", "setting": "PNPLA3 mRNA [1]", "value": 0.56}, {"measurement": "Primary Hepatocytes 4178 PNPLA3 (fold change in mRNA expression)", "setting": "PNPLA3 mRNA [2]", "value": 0.32}, {"measurement": "Primary Hepatocytes 4282 PNPLA3 (fold change in mRNA expression)", "setting": "PNPLA3 mRNA [2]", "value": 0.46}, {"measurement": "Primary Stellate cells COL1A1 (fold change in mRNA expression)", "setting": "COL1A1 mRNA", "value": 0.54}]}, {"molecule": "Cc1c(CN2CCN(C(=O)[C@H](C)O)CC2)sc2c(N3CCOCC3)nc(-c3cnc(N)nc3)nc12", "note": "[Apitolisib]", "values": [{"measurement": "Primary Hepatocytes 4178 PCSK9 (fold change in mRNA expression)", "setting": "PCSK9 mRNA; listed as GDC-0980", "value": 0.40}, {"measurement": "Primary Stellate cells PNPLA3 (fold change in mRNA expression)", "setting": "PNPLA3 mRNA [1]; listed as GDC-0980", "value": 0.67}, {"measurement": "Primary Hepatocytes 4178 PNPLA3 (fold change in mRNA expression)", "setting": "PNPLA3 mRNA [2]; listed as GDC-0980", "value": 0.37}, {"measurement": "Primary Hepatocytes 4282 PNPLA3 (fold change in mRNA expression)", "setting": "PNPLA3 mRNA [2]; listed as GDC-0980", "value": 0.40}, {"measurement": "Relative PINPLA3 mRNA", "setting": "PNPLA3 mRNA [2]; 0.1 uM", "value": 0.893}, {"measurement": "Relative PINPLA3 mRNA", "setting": "PNPLA3 mRNA [2]; 0.3 uM", "value": 0.669}, {"measurement": "Relative PINPLA3 mRNA", "setting": "PNPLA3 mRNA [2]; 1 uM", "value": 0.420}, {"measurement": "Relative PINPLA3 mRNA", "setting": "PNPLA3 mRNA [2]; 3 uM", "value": 0.365}, {"measurement": "PNPLA3 expression by reported compound specificity (in words)", "setting": "PNPLA3 mRNA [2]; summary of mTOR/PI3K inhibitor testing", "value": "most robust PNPLA3 inhibition"}, {"measurement": "Primary Stellate cells COL1A1 (fold change in mRNA expression)", "setting": "COL1A1 mRNA; listed as GDC-0980", "value": 0.61}]}, {"molecule": "Cc1nc(NC(=O)N2CCC[C@H]2C(N)=O)sc1-c1ccnc(C(C)(C)C(F)(F)F)c1", "note": "[BYL-719]", "values": [{"measurement": "Primary Hepatocytes 4178 PCSK9 (fold change in mRNA expression)", "setting": "PCSK9 mRNA", "value": 0.71}, {"measurement": "Primary Stellate cells PNPLA3 (fold change in mRNA expression)", "setting": "PNPLA3 mRNA [1]", "value": 0.70}, {"measurement": "Primary Hepatocytes 4178 PNPLA3 (fold change in mRNA expression)", "setting": "PNPLA3 mRNA [2]", "value": 0.69}, {"measurement": "Primary Hepatocytes 4282 PNPLA3 (fold change in mRNA expression)", "setting": "PNPLA3 mRNA [2]", "value": 0.60}, {"measurement": "Primary Stellate cells COL1A1 (fold change in mRNA expression)", "setting": "COL1A1 mRNA", "value": 1.24}]}, {"molecule": "Nc1cc(C(F)(F)F)c(-c2cc(N3CCOCC3)nc(N3CCOCC3)n2)cn1", "note": "[Buparlisib (BKN120, NVE-BKM120)]", "values": [{"measurement": "Primary Hepatocytes 4178 PCSK9 (fold change in mRNA expression)", "setting": "PCSK9 mRNA", "value": 0.46}, {"measurement": "Primary Stellate cells PNPLA3 (fold change in mRNA expression)", "setting": "PNPLA3 mRNA [1]", "value": 0.50}, {"measurement": "Primary Hepatocytes 4178 PNPLA3 (fold change in mRNA expression)", "setting": "PNPLA3 mRNA [2]", "value": 0.52}, {"measurement": "Primary Hepatocytes 4282 PNPLA3 (fold change in mRNA expression)", "setting": "PNPLA3 mRNA [2]", "value": 0.60}, {"measurement": "Primary Stellate cells COL1A1 (fold change in mRNA expression)", "setting": "COL1A1 mRNA", "value": 0.81}]}, {"molecule": "CO[C@H]1CC[C@H](N2C(=O)CNc3ncc(-c4ccc(C(C)(C)O)nc4)nc32)CC1", "note": "[CC-223]", "values": [{"measurement": "Primary Hepatocytes 4178 PCSK9 (fold change in mRNA expression)", "setting": "PCSK9 mRNA", "value": 0.72}, {"measurement": "Primary Stellate cells PNPLA3 (fold change in mRNA expression)", "setting": "PNPLA3 mRNA [1]", "value": 0.33}, {"measurement": "Primary Hepatocytes 4178 PNPLA3 (fold change in mRNA expression)", "setting": "PNPLA3 mRNA [2]", "value": 0.51}, {"measurement": "Primary Hepatocytes 4282 PNPLA3 (fold change in mRNA expression)", "setting": "PNPLA3 mRNA [2]", "value": 0.80}, {"measurement": "Primary Stellate cells COL1A1 (fold change in mRNA expression)", "setting": "COL1A1 mRNA", "value": 0.50}]}, {"molecule": "COc1ccc(-c2nc(N3CCOCC3)c3sc(CN(C)c4ncc(C(=O)NO)cn4)cc3n2)cn1", "note": "[CUDC-907]", "values": [{"measurement": "Primary Hepatocytes 4178 PCSK9 (fold change in mRNA expression)", "setting": "PCSK9 mRNA", "value": 0.83}, {"measurement": "Primary Stellate cells PNPLA3 (fold change in mRNA expression)", "setting": "PNPLA3 mRNA [1]", "value": 1.33}, {"measurement": "Primary Hepatocytes 4178 PNPLA3 (fold change in mRNA expression)", "setting": "PNPLA3 mRNA [2]", "value": 0.50}, {"measurement": "Primary Hepatocytes 4282 PNPLA3 (fold change in mRNA expression)", "setting": "PNPLA3 mRNA [2]", "value": 0.50}, {"measurement": "Primary Stellate cells COL1A1 (fold change in mRNA expression)", "setting": "COL1A1 mRNA", "value": 0.41}]}]}
